Source: ChEMBL document CHEMBL5576149, “Discovery of Potent STT3A/B Inhibitors and Assessment of Their Multipathogen Antiviral Potential and Safety” (J Med Chem, 2024)
Converted amounts (≈) assume the structure as drawn. The source made the active and inactive calls. No cut-off for these calls is given here.

Tests used:
[1] = Inhibition of STT3A/STT3B mediated N-linked glycosylation in human H1-HeLa cells stably transduced with ERluc by measuring effective concentration of inhibition incubated for 18 hrs by One-Glo luciferase reporter assay; format: cell-based
Influenza A virus [2] = test: Antiviral activity against influenza A virus H1N1 A/Puerto Rico/8/1934 infected in MDCK cells assessed as reduction in viral replication measured after 3 hrs of post-infection by RT-qPCR analysis relative to control; format: functional; parameters: scale not given: the % may be the effect or the level left
Human respirovirus 3 = test: Antiviral activity against Human parainfluenza virus 3 JS infected in human A549 cells assessed as reduction in viral proliferation incubated for 44 hrs by Hoechst dye based fluorescence analysis; format: functional, organism-based; settings: Human respirovirus 3, JS, A549, 44 h
A549 [3] = test: Cytotoxicity against human A549 cells by fluorescent cell imaging assay; format: functional
Human coronavirus 229E = test: Antiviral activity against Human coronavirus 229E infected in human MRC5 cells assessed as reduction in viral growth incubated for 68 hrs by CellTiter-Glo luminescence assay; format: functional, organism-based; settings: MRC5, 68 h
A549 [4] = test: Cytotoxicity against human A549 cells; format: functional
[5] = Cytotoxicity against human MRC5 cells by luminescence-based cell viability assay; format: toxicity
Influenza A virus [6] = test: Antiviral activity against influenza A virus H1N1 A/Puerto Rico/8/1934 infected in MDCK cells assessed as reduction in viral replication measured after 30 hrs of post-infection by RT-qPCR analysis relative to control; format: functional; parameters: scale not given: the % may be the effect or the level left
SARS-CoV-2 = test: Antiviral activity against SARS-CoV-2 infected in human A549 cells assessed as reduction in viral growth incubated for 24 hrs by Nano-Glo reagent based analysis; format: functional, organism-based; settings: Severe acute respiratory syndrome coronavirus 2, A549, 24 h
[7] = Unbound clearance in rat liver microsomes at 0.5 uM incubated upto 45 mins; format: ADME, Microsome; settings: 0.75 h
[8] = Chromatographic hydrophobicity index, logD of the compound at pH 7.4; format: physicochemical; settings: buffer
[9] = Unbound clearance in human liver microsomes at 0.5 uM incubated upto 45 mins; format: ADME, Microsome; settings: 0.75 h
[10] = Cytotoxicity against human Hepatocyte cultured as 3D spheroids incubated for 14 days by CellTiter-Glo luminescence assay; format: toxicity, cell-based; settings: hepatocytes cultured as 3D spheroids
[11] = Neurotoxicity in human iPSC cells co-cultured with human astrocyte assessed as inhibition of cell growth at 300 nM incubated for 48 hr by multi-electrode array analysis relative to control; format: toxicity, cell-based; settings: ipsc, 48 h, 0.3 µM
HepG2 = test: Selectivity ratio of apparent dissociation constant for binding affinity to STT3A in human HepG2 cells to apparent dissociation constant for binding affinity to STT3B in human HepG2 cells; format: cell-based
[12] = Volume of distribution at steady state in Wistar Han rat at 2 mg/kg,po or 1 mg/kg,iv administrated upto 60 mins by LC-MS/MS analysis; format: ADME, organism-based; settings: in vivo, 1 h
[13] = Inhibition of STT3A/STT3B mediated N-linked glycosylation in STT3A knockout human H1-HeLa cells stably transduced with Halo3N-ER sequence by measuring effective concentration incubated for 24 hrs by Western blotting analysis; format: cell-based
[14] = Bioavailability in Wistar Han rat at 2 mg/kg,po or 1 mg/kg,iv administrated upto 60 mins by LC-MS/MS analysis; format: ADME, organism-based; settings: in vivo
[15] = Volume of distribution at steady state in CD1 mouse at 2 mg/kg,po or 1 mg/kg,iv administrated upto 60 mins by LC-MS/MS analysis; format: ADME, organism-based; settings: in vivo, 1 h
Influenza A virus [16] = test: Antiviral activity against influenza A virus H1N1 A/Puerto Rico/8/1934 infected in MDCK cells assessed as reduction in viral proliferation incubated for 24 hrs by FFU assay; format: functional, organism-based; settings: H1N1 A/Puerto Rico/8/1934, MDCK
[17] = Inhibition of STT3A/STT3B mediated N-linked glycosylation in STT3B knockout human H1-HeLa cells stably transduced with Halo3N-ER sequence by measuring effective concentration incubated for 24 hrs by Western blotting analysis; format: cell-based
[18] = Unbound clearance in CD1 mouse at 2 mg/kg,po or 1 mg/kg,iv administrated upto 60 mins by LC-MS/MS analysis; format: ADME, organism-based; settings: in vivo, 1 h
H1-HeLa [19] = test: Inhibition of STT3A/STT3B in human H1-HeLa cells assessed as upregulation of DERL3 gene expression incubated for 24 hrs; format: cell-based
[20] = Unbound clearance in Wistar Han rat at 2 mg/kg,po or 1 mg/kg,iv administrated upto 60 mins by LC-MS/MS analysis; format: ADME, organism-based; settings: in vivo, 1 h
[21] = MRT in Wistar Han rat at 2 mg/kg,po or 1 mg/kg,iv administrated upto 60 mins by LC-MS/MS analysis; format: ADME, organism-based; settings: in vivo
H1-HeLa [22] = test: Inhibition of STT3A/STT3B in human H1-HeLa cells assessed as upregulation of […] gene expression incubated for 24 hrs; format: cell-based
H1-HeLa [23] = test: Inhibition of STT3A/STT3B in human H1-HeLa cells assessed as upregulation of SDF2L1 gene expression incubated for 24 hrs; format: cell-based
[24] = Bioavailability in CD1 mouse at 2 mg/kg,po or 1 mg/kg,iv administrated upto 60 mins by LC-MS/MS analysis; format: ADME, organism-based; settings: in vivo
[25] = Solubility of compound in FaSSIF; format: ADME
H1-HeLa [26] = test: Inhibition of STT3A/STT3B in human H1-HeLa cells assessed as upregulation of MANF gene expression incubated for 24 hrs; format: cell-based
[27] = MRT in CD1 mouse at 2 mg/kg,po or 1 mg/kg,iv administrated upto 60 mins by LC-MS/MS analysis; format: ADME, organism-based; settings: in vivo
[28] = Unbound clearance in mouse liver microsomes at 0.5 uM incubated upto 45 mins; format: ADME, Microsome; settings: 0.75 h

SMILES: CN(C)S(=O)(=O)c1ccc(N2CCCC2)c(C(=O)Nc2ccccc2)c1
- EC50 [1]: 5010 nM

SMILES: CN(C)S(=O)(=O)c1ccc(N2CCCC2)c(C(=O)Nc2ncc(C3CC3)s2)c1
- EC50 [1]: 332 nM

SMILES: Cc1ccc2cc(-c3cc(S(=O)(=O)N(C)CC(=O)N4CCOCC4)ccc3N3CCCC3)[nH]c2c1
- Activity (Influenza A virus [2]): >90%
- EC50 (Human respirovirus 3): 6 nM
- CC50 (A549 [3]): 35 nM
- EC50 (Human coronavirus 229E): 2 nM
- EC50 [1]: 2 nM
- CC50 (A549 [4]): 13 nM
- CC50 [5]: 44 nM
- Activity (Influenza A virus [6]): 60%
- EC50 (SARS-CoV-2): 4 nM

SMILES: CN(C)S(=O)(=O)c1ccc(N2CCC2)c(-c2cc3ccccc3[nH]2)c1
- CL free [7]: 7395 mL/min/kg
- chromatographic logD [8]: 6.5
- CL free [9]: 117 mL/min/kg
- EC50 [1]: 31 nM

SMILES: CN(C)S(=O)(=O)c1ccc(N2CCC(F)(F)C2)c(-c2cc3ccccc3[nH]2)c1
- CL free [7]: 27713 mL/min/kg
- chromatographic logD [8]: 6.6
- CL free [9]: 526 mL/min/kg
- EC50 [1]: 107 nM

SMILES: Cc1ccc2[nH]c(-c3cc(S(=O)(=O)N(C)C)ccc3N3CCCC3)cc2c1
- EC50 [1]: 32 nM

SMILES: CN(C)S(=O)(=O)c1ccc(N2CC[C@@H](O)C2)c(-c2cc3ccccc3[nH]2)c1
- CL free [7]: 1795 mL/min/kg
- chromatographic logD [8]: 4.8
- CL free [9]: 160 mL/min/kg
- EC50 [1]: 513 nM
- IC50 at 14 days [10]: 6.3 µM

SMILES: CCCC(C)C1(CC)C(=O)NC(=O)NC1=O (stereo unspecified) [PENTOBARBITAL]
- Activity [11]: Non-Toxic

SMILES: CN(C)S(=O)(=O)c1cnc(N2CCCC2)c(-c2cc3ccccc3[nH]2)c1
- EC50 [1]: 779 nM

SMILES: CN(C)S(=O)(=O)c1ccc(N2CCCC2)c(-c2cc3cccnc3[nH]2)c1
- EC50 [1]: 409 nM

SMILES: Cc1ccc2cc(-c3cc(S(=O)(=O)N(C)CC(=O)N4CCOC[C@@H]4C)ccc3N3CCCC3)[nH]c2c1
- EC50 (Human respirovirus 3): 12 nM
- CC50 (A549 [3]): 57 nM
- EC50 (Human coronavirus 229E): 5 nM
- EC50 [1]: 1 nM
- Selectivity ratio (HepG2): 10
- CC50 [5]: 199 nM

SMILES: CN(C)S(=O)(=O)c1ccc(N2CCCC2)c(-c2cc3ccccc3[nH]2)c1
- Vdss [12]: 5.7 L/kg
- EC50 [13]: 34 nM
- Activity (Influenza A virus [2]): >90%
- EC50 (Human respirovirus 3): 9 nM
- bioavailability [14]: 0%
- Vdss [15]: 6 L/kg
- EC50 (Influenza A virus [16]): 152 nM
- EC50 [17]: 36 nM
- CC50 (A549 [3]): 661 nM
- CL free [18]: 61467 mL/min/kg
- inhibition (H1-HeLa [19]): Active
- EC50 (Human coronavirus 229E): 25 nM
- CL free [7]: 23136 mL/min/kg
- CL free [20]: 102538 mL/min/kg
- MRT [21]: 42 min
- chromatographic logD [8]: 7
- CL free [9]: 303 mL/min/kg
- inhibition (H1-HeLa [22]): Active
- EC50 [1]: 21 nM
- CC50 (A549 [4]): 590 nM
- CC50 [5]: 688 nM
- inhibition (H1-HeLa [23]): Active
- Activity (Influenza A virus [6]): 60%
- bioavailability [24]: 2%
- EC50 (SARS-CoV-2): 34 nM
- solubility [25]: < 1 µg/mL
- inhibition (H1-HeLa [26]): Active
- MRT [27]: 0.9 h

SMILES: Cc1cnc(NC(=O)c2cc(S(=O)(=O)N(C)C)ccc2N2CCCC2)s1
- Vdss [12]: 1.9 L/kg
- EC50 (Human respirovirus 3): 379 nM
- bioavailability [14]: 0.6%
- EC50 (Human coronavirus 229E): 1360 nM
- CL free [7]: ~ 2000 ml/min.kg
- CL free [20]: ~ 10000 ml/min.kg
- MRT [21]: 18 min
- chromatographic logD [8]: 4.9
- EC50 [1]: 589 nM
- IC50 at 14 days [10]: 20 µM
- EC50 (SARS-CoV-2): 1360 nM
- solubility [25]: < 1 µg/mL

SMILES: CN(C)S(=O)(=O)c1ccc(N2CCCC2)c(-c2cc3cc(F)ccc3[nH]2)c1
- EC50 [1]: 172 nM

SMILES: CN(C)S(=O)(=O)c1ccc(N2CCCC2)c(-c2cc3ccc(F)cc3[nH]2)c1
- EC50 [1]: 62 nM

SMILES: C[S@](=N)(=O)c1ccc(N2CC[C@H](O)C2)c(-c2cc3ccccc3[nH]2)c1
- chromatographic logD [8]: 2.7
- CL free [9]: < 12 mL/min/kg
- EC50 [1]: 279 nM

SMILES: O=C([C@@H]1CCN1S(=O)(=O)c1ccc(N2CC[C@@H](O)C2)c(-c2cc3ccccc3[nH]2)c1)N1CCOCC1
- EC50 (Human respirovirus 3): 57 nM
- CC50 (A549 [3]): 1950 nM
- EC50 (Human coronavirus 229E): 7 nM
- CL free [7]: 1998 mL/min/kg
- chromatographic logD [8]: 3.5
- CL free [9]: 904 mL/min/kg
- EC50 [1]: 5 nM
- CC50 (A549 [4]): 2000 nM
- CC50 [5]: 926 nM
- EC50 (SARS-CoV-2): 4 nM

SMILES: CN(C)S(=O)(=O)c1ccc(N2CCCC2)c(-c2nc3ccccc3[nH]2)c1
- EC50 [1]: 4420 nM

SMILES: Cc1ccc2cc(-c3cc(S(=O)(=O)N(C)CC(=O)NCCC4(CCNC(=O)O[C@@H]5CC/C=C/CCC5)N=N4)ccc3N3CCCC3)[nH]c2c1
- EC50 [1]: 827 nM

SMILES: CN(C)S(=O)(=O)c1ccc(N2CCCC2)c(-c2cc3ccncc3[nH]2)c1
- EC50 [1]: 394 nM

SMILES: CN(C)S(=O)(=O)c1ccc(N2CCCC2)c(C(=O)Nc2ccc(F)cc2)c1
- EC50 [1]: 1390 nM

SMILES: CCS(=O)(=O)c1ccc(N2CC[C@H](O)C2)c(-c2cc3ccccc3[nH]2)c1
- Vdss [15]: 2.7 L/kg
- EC50 (Influenza A virus [16]): 307 nM
- CL free [18]: 706 mL/min/kg
- CL free [28]: < 49 mL/min/kg
- EC50 (Human coronavirus 229E): 58 nM
- chromatographic logD [8]: 4.3
- CL free [9]: < 19 mL/min/kg
- EC50 [1]: 36 nM
- CC50 (A549 [4]): 3800 nM
- CC50 [5]: 4110 nM
- bioavailability [24]: 33%
- EC50 (SARS-CoV-2): 116 nM
- solubility [25]: 130 µg/mL (≈ 351 µM)
- MRT [27]: 1.4 h

SMILES: O=C([C@H]1CCN1S(=O)(=O)c1ccc(N2CCC(F)(F)C2)c(-c2cc3ccccc3[nH]2)c1)N1CCOCC1
- CL free [7]: 3480 mL/min/kg
- chromatographic logD [8]: 5.3
- EC50 [1]: 615 nM
- IC50 at 14 days [10]: 2.5 µM
